In patent US11407741B2, “Compounds and their use as selective inhibitors of caspase-2” (priority 2017, dated 2022):
Where a SMILES comes first, the peptide text is derived from it. [ ]: non-standard residue; d: D form. The star is where a group is joined. Pro(3S-CH2tBu) = CC(C)(C)C[C@H]1CCN[C@@H]1C(=O)O; Quinaldoyl = O=C(c1ccc2ccccc2n1)*; X1 = c1ncc(CO*)s1

What was measured:
Caspase-3 [1] = target: T1, Caspase-3 (Homo sapiens, UniProt P42574); experiment: Caspase-3 inhibition assay for irreversible inhibitors (kinact/KI, continuous method); assay type: biochemical; details: human recombinant Caspase-3 0.5 nM, 37° C.
T1 construct: the Caspase-2 and Caspase-3 are human recombinant active enzymes; purchased R&D Systems 707-C3-010/CF
T1 sequence (P42574 29-175 limits assumed): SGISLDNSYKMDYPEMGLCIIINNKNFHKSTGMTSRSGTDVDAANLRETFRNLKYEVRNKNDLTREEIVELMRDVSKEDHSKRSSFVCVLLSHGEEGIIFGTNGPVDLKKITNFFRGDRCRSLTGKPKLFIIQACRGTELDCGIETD
T1 sequence (P42574 176-277 limits assumed): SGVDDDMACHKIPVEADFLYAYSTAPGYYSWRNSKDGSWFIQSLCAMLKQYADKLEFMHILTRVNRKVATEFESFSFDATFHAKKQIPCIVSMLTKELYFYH
Description: The efficiency of the comparative compound Δ2Me-TRP601, that is an already known group II Caspase inhibitor (inhibitor of Caspase-2, Caspase-3 and Caspase-7), has been assessed by a similar protocol described in Chauvier et al., 2011 Cell Death Dis 2011, 2:e203.
In this example, the Caspase-2 and Caspase-3 are human recombinant active enzymes that are respectively provided by Enzo Life® (ALX-201-057-U100) and R&D Systems® (707-C3-010/CF).
Caspase-2 is used at a final concentration of 0.1 nM in a “Caspase-2 buffer” containing 20 mM HEPES (pH 7.4), 5 mM DTT, 2 mM EDTA, 0.1% CHAPS and 800 mM succinate. […]
The peptide substrates used for the enzymatic activity measurements are Ac-DEVD-AMC and Ac-VDVAD-AMC commercialized by EnzoLife® (respectively referenced ALX-260-031-M005 and ALX-260-060-M005). […] The releasing of AMC enables to follow the enzymatic activity in fluorescence unit RFU over time in a 96-wells microplate.
The fluorescence values are measured at 37° C. with a spectrofluorometer with a microplate reader BMG FLUOstar OPTIMA. […]
The inhibitory properties of the tested compounds are evaluated by the determination of the kinact/KI ratio regarding either Caspase-2 or Caspase-3 wherein: • kinact is the maximal inactivation rate constant, and • KI is the dissociation constant according to: […]
The activities of the enzyme are measured between 45 and 60 minutes. […]

Caspase-3 [2] = target: T1, Caspase-3; experiment: Caspase-3 inhibition assay for reversible inhibitors (IC50, Ki); assay type: biochemical; details: compared with Ac-VDVAD-CHO
Description: A preliminary step in the characterization of an inhibitor is the determination of its IC50. The IC50 is the necessary concentration of an inhibitor to decrease the enzyme activity by 50% of its maximum and uninhibited value.
The compound, at different concentrations, is incubated with the enzyme and buffer for 30 minutes at 37° C. to allow formation of the Enzyme-Inhibitor complex. The reaction is initiated by addition of buffer and substrate, and then activity is measured over 15 minutes for the determination of initial velocities.
The enzyme and the inhibitor (or DMSO as control) are incubated for 30 minutes at 37° C. The complex thus formed is diluted to 100th in the buffer/substrate mixture and then the activity measurement is started over 20 minutes. The initial rate obtained for the DMSO represents the 100% activity and will serve as a reference for the quantification of the residual activity of the enzyme in the presence of the inhibitor.
The reaction is started over 20 minutes upon addition of the buffer-substrate mixture.
Initial velocity values in RFU·min^−1 are reduced to Specific Activity (SA)values (pmol/min/μg enzyme) from an AMC standard range (1 RFU→0.02 pmol).
The evolution of the ratio 1/SA as a function of 1/[S] makes it possible to obtain the so-called double-inverse graph of Lineweaver-Burk from equation 4 (eq.4) where Vmaxapp and KMapp are the parameters which vary according to the type inhibition and as a function of inhibitor concentration. The intersection of the lines obtained for increasing inhibitor concentrations makes it possible to distinguish different types of inhibitors.
A secondary graph, obtained from the values of the slopes of the Lineweaver-Burk plot as a function of the concentration of inhibitor, makes it possible to obtain the value of the Ki. Its value is given by the abscissa point at the origin. […]

SMILES	k3/KI Casp3 (Caspase-3 [1])	potency on Caspase-3 (Caspase-3 [2])
CC(C)[C@H](NC(=O)c1ccc2ccccc2n1)C(=O)N[C@@H](CC(=O)O)C(=O)N[C@H](C(=O)N1CC[C@H](CC(C)(C)C)[C@H]1C(=O)N[C@@H](CC(=O)O)C(=O)COc1c(F)cccc1F)C(C)C (single isomer, unassigned) [Compound 2 enantiomer a]	2 625 M^−1 · s^−1	
CC(C)[C@H](NC(=O)c1ccc2ccccc2n1)C(=O)N[C@@H](CC(=O)O)C(=O)N[C@H](C(=O)N1CC[C@H](CC(C)(C)C)[C@H]1C(=O)N[C@@H](CC(=O)O)C(=O)OCc1cncs1)C(C)C [Compound 3, (S)-4-(((S)-1-((2S,3S)-2-(((S)-3-carboxy-1-oxo-1-(thiazol-5 - ylmethoxy)propan-2-yl)carbamoyl)-3-neopenthylpyrrolidin-1-yl)-3-methyl-1-oxobutan-2-yl)amino)-3-((S)-3-methyl-2-(quinoline-2-carboxamido)butanamido)-4-oxobutanoic acid] (Quinaldoyl-VDV[Pro(3S-CH2tBu)]D-X1)		considerably less potent on Caspase-3 than Ac-VDVAD-CHO
